Experimental data as given in the supplement of paper PMC11616607.

Experiments:
Assay in all cases: drug sensitivity score (DSS) from 5-point dose-response viability curve (DSS (area-under-curve based score)); higher = more sensitive (stronger growth inhibition or killing); extreme values may be limits of the assay
Conditions in all cases: exposure time: 72 h; concentration range: 5 concentrations over 10,000-fold range
OVCAR8 = test system: OVCAR8
Method in brief: (§1)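 Drug sensitivity scores were calculated in Breeze software for each cell line and drug pair; higher scores indicate more sensitivity. A score of zero indicates no response. The underlying assay used 384-well plates: drugs were placed by an Echo 550 acoustic dispenser at five concentrations spanning a 10,000-fold range, 1,500 ovarian cancer or normal ovarian cells were added per well, and cells were kept 3 days at 37°C, 5% CO2. Viability was then measured with CellTiter-Glo luminescence on a PHERAstar FS.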

COV318 = test system: COV318
Method in brief: as §1

HOSE1C = test system: HOSE1C
Method in brief: as §1

Ovsaho = test system: Ovsaho
Method in brief: as §1

Kuramochi = test system: Kuramochi
Method in brief: as §1

JHOS2 = test system: JHOS2
Method in brief: as §1

COV362 = test system: COV362
Method in brief: as §1

CAOV3 = test system: CAOV3
Method in brief: as §1

OVCAR5 = test system: OVCAR5
Method in brief: as §1

OVCAR4 = test system: OVCAR4
Method in brief: as §1

HOSE2C = test system: HOSE2C
Method in brief: as §1

OV90 = test system: OV90
Method in brief: as §1

| Structure (SMILES) | drug sensitivity score (OVCAR8) | drug sensitivity score (COV318) | drug sensitivity score (HOSE1C) | drug sensitivity score (Ovsaho) | drug sensitivity score (Kuramochi) | drug sensitivity score (JHOS2) | drug sensitivity score (COV362) | drug sensitivity score (CAOV3) | drug sensitivity score (OVCAR5) | drug sensitivity score (OVCAR4) | drug sensitivity score (HOSE2C) | drug sensitivity score (OV90) |
| --- | --- | --- | --- | --- | --- | --- | --- | --- | --- | --- | --- | --- |
| Cc1sc2c(c1C)C(c1ccc(Cl)cc1)=N[C@@H](CC(=O)Nc1ccc(OCCOCCOCCOCCNc3cccc4c3C(=O)N(C3CCC(=O)NC3=O)C4=O)cc1)c1nnc(C)n1-2 (some centres not stated) [ARV-825] | 15.5 | 5.2 | 17.3 | 10 | 9.9 | 4.6 | 1.5 | 5.4 | 7.9 | 8.2 | 7.9 | 6.7 |
| COc1cc(N2CCC(N3CCN(C)CC3)CC2)ccc1Nc1ncnc(Nc2ccccc2S(=O)(=O)C(C)C)n1 [ASP3026] | 4.3 | 2.9 | 3.4 | 4.7 | 4 | 4.1 | 3.3 | 6.6 | 8.2 | 4.3 | 6.4 | 5.2 |
| O=C(NC1CCNCC1)c1n[nH]cc1NC(=O)c1c(Cl)cccc1Cl [AT7519] | 15.5 | 6.2 | 16.6 | 8.9 | 9.3 | 18 | 12 | 13.9 | 13.5 | 9.3 | 8 | 14.2 |
| O=C(Nc1c[nH]nc1-c1nc2ccc(CN3CCOCC3)cc2[nH]1)NC1CC1 [AT9283] | 3.1 | 1.1 | 2.4 | 5.2 | 3.5 | 3.5 | 4.4 | 16.9 | 4.6 | 6.8 | 7.4 | 2.6 |
| CC[C@H](CC#N)OC(=O)N[C@@H](C)c1cccc(NC(=O)Nc2ccc(-c3cnco3)c(OC)c2)c1 [AVN944] | 11.1 | 9.4 | 25 | 9.5 | 8 | 9.6 | 3.3 | 10.9 | 13.6 | 7 | 15.8 | 12.7 |
| COc1cc(N2CCN(C)CC2)ccc1Nc1nccc(-c2cn(C)c3cnccc23)n1 [AZ191] | 2.2 | 4.1 | 1 | 1.6 | 1.4 | 4.4 | 2.2 | 0 | 2 | 0.6 | 1.9 | 5.9 |
| COc1cc(OC2CCN(C)CC2)ccc1Nc1ncc2c(n1)n(C1CCCC1)c(=O)n2C [AZ 3146] | 4.6 | 2.7 | 0.9 | 4.7 | 3.9 | 2.3 | 0.8 | 3.6 | 6.2 | 1.5 | 2.4 | 4.8 |
| CN(C)CCCOc1ccc(-c2ccc3ncc4c(c3c2)n(C2CCOCC2)c(=O)n4C)cn1 [AZD0156] | 0 | 0 | 1 | 3.2 | 0.2 | 0 | 0 | 1.2 | 1.4 | 0 | 0 | 1.1 |
| N[C@@H]1CCCN(c2c(/C=C3\SC(=O)NC3=O)cccc2-c2ccccc2)C1 [AZD1208] | 0.1 | 1.1 | 0.2 | 3.5 | 1.7 | 0.3 | 0 | 0 | 1.4 | 0 | 0 | 0.3 |
| Cc1cc(Nc2nc(N[C@@H](C)c3ncc(F)cn3)ncc2Cl)[nH]n1 [AZD1480] | 0 | 0 | 0 | 0.7 | 0 | 0 | 0 | 0 | 0.5 | 0.5 | 2.8 | 0 |
| COc1cc2ncnc(Nc3cccc(Cl)c3F)c2cc1OC(=O)N1CCN(C)C[C@H]1C [AZD3759] | 0 | 0 | 0 | 0 | 0 | 0.2 | 0 | 3.5 | 0.2 | 0 | 0 | 0 |
| Cc1[nH]nc(C(F)(F)F)c1Cc1sc2c(c1C(=O)N1C[C@](C)(O)CO1)c(=O)n(C)c(=O)n2C(C)C [AZD3965] | 0 | 0 | 0 | 0.8 | 0 | 0 | 0 | 0 | 0 | 0 | 0 | 4.2 |
| COc1cc(CCc2cc(NC(=O)c3ccc(N4CC(C)NC(C)C4)cc3)n[nH]2)cc(OC)c1 (configuration not stated) [AZD4547] | 0 | 0 | 0.8 | 0 | 0 | 0 | 0 | 0 | 0 | 0 | 5.8 | 0 |
| CN(C)C(=O)c1ccc(S(=O)(=O)c2ccc(NC(=O)[C@@](C)(O)C(F)(F)F)c(Cl)c2)cc1 [AZD7545] | 2.2 | 0 | 0 | 0 | 0 | 0 | 0 | 1.1 | 0 | 0 | 0.4 | 0 |
| NC(=O)Nc1cc(-c2cccc(F)c2)sc1C(=O)N[C@H]1CCCNC1 [AZD7762] | 5.2 | 5 | 7.4 | 4 | 4.2 | 1.9 | 7 | 6.1 | 6.6 | 7 | 7.8 | 6.4 |
| COc1ccc(-c2ccc3c(N4CCOC[C@@H]4C)nc(N4CCOC[C@@H]4C)nc3n2)cc1CO [AZD8055] | 17.2 | 13.6 | 20.7 | 16.9 | 15.6 | 14.4 | 6.4 | 15.6 | 18.4 | 17.5 | 16.2 | 20.8 |

| Structure (SMILES) | drug sensitivity score (OVCAR8) | drug sensitivity score (COV318) | drug sensitivity score (HOSE1C) | drug sensitivity score (Ovsaho) | drug sensitivity score (Kuramochi) | drug sensitivity score (JHOS2) | drug sensitivity score (COV362) | drug sensitivity score (CAOV3) | drug sensitivity score (OVCAR5) | drug sensitivity score (OVCAR4) | drug sensitivity score (HOSE2C) | drug sensitivity score (OV90) |
| --- | --- | --- | --- | --- | --- | --- | --- | --- | --- | --- | --- | --- |
| N#Cc1ccc2[nH]c(O)c(-c3ccc(CN4CCOCC4)cn3)c2c1 [AZD-1080] | 0 | 0 | 0 | 0 | 0 | 0 | 0 | 0.9 | 0 | 0 | 0.3 | 0 |
| Cc1ncc(-c2ccnc(Nc3ccc(S(C)(=O)=O)cc3)n2)n1C(C)C [AZD-5438] | 8.4 | 2.9 | 7 | 8.1 | 6.8 | 7.9 | 2.8 | 4.4 | 9.2 | 2.9 | 2 | 4.4 |
| Cc1cc([C@@H](C)Nc2ccccc2C(=O)O)c2nc(N3CCOCC3)cc(=O)n2c1 [AZD-6482] | 0.7 | 0.1 | 0.3 | 7.6 | 6 | 0 | 0 | 2.3 | 0.1 | 1.6 | 1.2 | 0 |
| C[C@@H](Nc1cc(F)cc(F)c1)c1cc(C(=O)N(C)C)cc2c(=O)cc(N3CCOCC3)oc12 [AZD-8186] | 0.6 | 0.7 | 0.1 | 6.3 | 7.1 | 0.8 | 0 | 2.1 | 1.9 | 3.1 | 0.3 | 0.1 |
| CCN1CCN(Cc2ccc(Nc3ncc(F)c(-c4cc(F)c5nc(C)n(C(C)C)c5c4)n3)nc2)CC1 [Abemaciclib] | 0.7 | 1 | 1.6 | 3.2 | 2.5 | 5.5 | 1.5 | 0.4 | 7.4 | 0 | 0.7 | 1.5 |
| CN(C)Cc1c(C(=O)NCCOc2ccc(C(=O)NO)cc2)oc2ccccc12 [Abexinostat] | 19.9 | 10.1 | 24.1 | 10 | 14.6 | 11.8 | 5.6 | 13.7 | 21.7 | 10.5 | 20 | 16.5 |
| C[C@]12CC[C@H](O)CC1=CC[C@@H]1[C@@H]2CC[C@]2(C)C(c3cccnc3)=CC[C@@H]12 [Abiraterone] | 0 | 0 | 0.1 | 0 | 0 | 0 | 0 | 0 | 0 | 0.3 | 0 | 0.5 |
| CC#CC(=O)N1CCC[C@H]1c1nc(-c2ccc(C(=O)Nc3ccccn3)cc2)c2c(N)nccn12 [Acalabrutinib] | 0 | 3.5 | 0 | 1 | 6.2 | 0.8 | 0.3 | 0 | 0.2 | 2.1 | 0 | 0 |
| COc1cc(C)c(/C=C/C(C)=C/C=C/C(C)=C/C(=O)O)c(C)c1C [Acitretin] | 0 | 0 | 0.1 | 0 | 0 | 1.3 | 0 | 0 | 0 | 0 | 0 | 0.2 |
| CN(C)C/C=C/C(=O)Nc1cc2c(Nc3ccc(F)c(Cl)c3)ncnc2cc1O[C@H]1CCOC1 [Afatinib] | 0.3 | 0 | 0 | 3.2 | 2.3 | 2.7 | 1.3 | 8.2 | 3.4 | 1 | 0 | 0 |
| Cn1ncc(Cl)c1-c1cc(C(=O)N[C@H](CN)Cc2cccc(F)c2)sc1Cl [Afuresertib] | 0.5 | 1.8 | 2.9 | 1.5 | 4 | 0 | 0 | 0.8 | 1.2 | 0.5 | 2.8 | 0.9 |
| COc1cccc2c1C(=O)c1c(O)c3c(c(O)c1C2=O)C[C@@](O)(/C(CO)=N/NC(=O)CCCCCN1C(=O)C=CC1=O)C[C@@H]3O[C@H]1C[C@H](N)[C@H](O)[C@H](C)O1 [Aldoxorubicin] | 10 | 3.8 | 6.8 | 8.3 | 5.8 | 7.3 | 2.2 | 9.2 | 6.5 | 3.2 | 7.4 | 8.3 |
| CCc1cc2c(cc1N1CCC(N3CCOCC3)CC1)C(C)(C)c1[nH]c3cc(C#N)ccc3c1C2=O [Alectinib] | 0.4 | 0 | 0 | 0 | 0 | 0 | 0 | 0 | 1.5 | 0 | 0 | 0 |
| COc1cc(Nc2ncc3c(n2)-c2ccc(Cl)cc2C(c2c(F)cccc2OC)=NC3)ccc1C(=O)O [Alisertib] | 9.4 | 1.9 | 8.9 | 3.1 | 3.7 | 0.4 | 0 | 22.5 | 6.9 | 4.9 | 5.4 | 5.4 |
| Oc1ncnc2[nH]ncc12 [Allopurinol] | 0 | 0 | 0 | 0 | 0 | 0 | 0 | 0 | 0 | 0.2 | 0 | 0.3 |
